Consider one molecule from patent publication USRE48253E1, “Methotrexate adjuvants to reduce toxicity and methods for using the same” (Tosk, Inc., priority 2008, dated 2020).

The series concerns AS283 cells. As to the kind of experiment: Cell Culture Study II: MTX cytotoxicity, CellTiter-Glo. In kind it is cell-based, human. To be noted: TK-112690 1, 10, 100 μM with MTX 0.01-100 μM, 72 hours. The protocol: In this study, AS283 cells were grown in RPMI-1640 supplemented with L-glutamine dipeptide, sodium pyruvate, HEPES, and 10% FBS. AS283 cells were used to seed three 96-well plates with 10,000 cells/well in a total volume of 50 μL. Medium alone wells were seeded 100 μL medium. Plates were incubated overnight. The following day, 25 μL of the TK-112690 and MTX stock solutions were added to the appropriate wells. TK-112690 was added first, followed by MTX in all wells. 25 μL of vehicle was added to TK-112690 alone wells. 25 μL of vehicle and 25 μL medium were added to vehicle control wells, and 50 μL medium was added to cell control wells. Cell viability was measured using CellTiter-Glo and DOX (10 μM) was used as a reference standard. The plates were incubated at 37° C., 5% CO2 for 72 hours then removed from the incubator and placed on the bench at room temperature for 30 min. The plates were not stacked or shaken. […] Luminescence was recorded on TriLux. […]
AS283 cells were grown in RPMI-1640 supplemented with L-glutamine dipeptide, sodium pyruvate, HEPES, and 10% FBS. […] Cell viability was measured using CellTiter-Glo and DOX (10 μM) was used as a reference standard.
The plates were incubated at 37° C., 5% CO2 for 72 hours then removed from the incubator and placed on the bench at room temperature for 30 min. […] Luminescence was recorded on TriLux.

Entries after “also recorded” stand apart in the source; their conditions may differ.

Regarding `Cc1cn2c(nc1=O)O[C@H]1[C@H](O)[C@@H](CO)O[C@H]12` [TK-112690, 2,2′-anhydro-5-methyluridine], the “effect on antiproliferative activity (cytotoxicity) of MTX” value is given as “did not diminish the cytotoxicity of MTX; also recorded: not altered”.
